Values of other authors in patent publication US7160555B2, “Immediate release medicinal compositions for oral use” (Kissei Pharmaceutical Co., Ltd., priority 1999, dated 2007).

Tested on: blood sugar
Conditions: Japanese Patent Laid-Open No. 356459/1992

Substance: (2S)-2-benzyl-3-(cis-hexahydro-2-iso-indolinylcarbonyl)propionic acid
- lowering action of blood sugar: remarkable lowering action of blood sugar
